Experimental data from patent publication US9556202B2, “Sulfonamide derivatives and methods of use thereof for improving the pharmacokinetics of a drug” (MERCK SHARP & DOHME CORP., priority 2012, dated 2017).

Target: T1, CYP3A4 (Homo sapiens, UniProt P08684)
T1 construct: 0.01 mg/mL protein human liver microsomes (BD Gentest); tissue BD Gentest; host or cells: human liver microsomes
Assay: IC50 vs CYP3A by inhibition of lopinavir metabolism in human liver microsomes
Type: biochemical
Conditions: human liver microsomes 0.01 mg/mL, 1.5 μM lopinavir, 8 min 37° C.; test conc. e.g. 0.098-100 nM; unit inferred; read-out: 3A4(LPV)
Experimental: Determination of IC50 Vs CYP3A by Measurement of Inhibition of Lopinavir Metabolism
This assay was performed in a standard 96-well plate design. IC50 values were calculated from the percent inhibition observed for each test compound at 6 concentrations (for example, 0.098, 0.391, 1.56, 6.25, 25 and 100 nM). The incubation substrate mix contains 1.5 μM lopinavir, 0.01 mg/mL protein human liver microsomes (BD Gentest), 1 mM NAPDH, 3.3 mM MgCl2 and 100 mM potassium phosphate buffer (pH 7.4). The production of the sum of three hydroxylated metabolites (M2: 6-hydroxy lopinavir, M3: 4-hydroxy lopinavir, M4: 4-hydroxy lopinavir (epimer of M3), Kumar et al., 1999) was determined after incubation for 8 min at 37° C. Quantitation of the metabolite peak area ratio against an internal standard (tolbutamide) was determined by LC/MS/MS analysis following acetonitrile treatment of the incubations.
Samples were analyzed in the MRM mode with a SCIEX API-4000 mass spectrometer (Applied Biosystems, Foster City, Calif.), with a Shimadzu LC-20 AD pump (Shimadzu corporation, Kyoto, JP) and a CTC PAL autosampler (Agilent Technologies, Switzerland). A Phenomenex, Luna, 5 μm, 100 A, 2.00×30 mm HPLC column was used for the separation. The mobile phases were: (A) 0.1% formic acid in water and (B) 0.1% formic acid in acetonitrile. The binary gradient was as follows.
The peak area ratio of the analyte to the internal standard was used to quantify the metabolite. The values of peak area ratios in the presence of test compound were compared to those of maximum or minimum controls and were expressed as % inhibition by interpolating between the maximum and minimum peak area ratios. Incubations with no inhibitor were defined as the maxima and with 5 μM ketoconazole were defined as the minima.
The following equation was used to calculate the % inhibition: [1−[(X−Low control)/(High control−Low control)]]*100
For the IC50 calculation, SigmaPlot was used to plot the mean % inhibition versus the test compound concentrations and for non-linear regression analysis of the data. Depending on the range of data points defining the inhibition curve, the data may have been fit to the 4-parameter logistic equation.

T1 sequence (P08684 2-503): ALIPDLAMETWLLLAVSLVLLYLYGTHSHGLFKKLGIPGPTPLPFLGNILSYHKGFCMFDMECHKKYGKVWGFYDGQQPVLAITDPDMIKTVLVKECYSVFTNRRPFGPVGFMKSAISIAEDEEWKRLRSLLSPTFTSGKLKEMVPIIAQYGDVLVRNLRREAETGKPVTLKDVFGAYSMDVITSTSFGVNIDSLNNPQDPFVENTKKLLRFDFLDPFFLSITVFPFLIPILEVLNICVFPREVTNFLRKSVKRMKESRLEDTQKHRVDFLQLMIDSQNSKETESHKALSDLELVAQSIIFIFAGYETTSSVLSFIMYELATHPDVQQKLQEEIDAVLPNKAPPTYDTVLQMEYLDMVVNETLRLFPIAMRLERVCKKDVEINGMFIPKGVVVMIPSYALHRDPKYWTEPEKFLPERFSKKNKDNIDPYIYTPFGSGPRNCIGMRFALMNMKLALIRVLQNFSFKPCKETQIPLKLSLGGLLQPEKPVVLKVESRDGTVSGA

Row | Structure (SMILES) | IC50 [nM]
1 | C[C@H](c1ccc(F)cc1)n1cncc1CN1CCN(S(=O)(=O)c2cnc(N3CCC4(CC3)CNC(=O)N4)s2)CC1 [Compound 3] | 2.7
2 | C[C@H](c1ccc(F)cc1)n1cncc1C1C(=O)OCC2CN(S(=O)(=O)c3cnc(Nc4ccc(C(F)(F)F)cn4)s3)CCN21 (stereo partly shown) [Compound 39] | 8
3 | C[C@H](c1ccc(F)cc1)n1cncc1CN1CCN(S(=O)(=O)c2cnc(N3CCN4C[C@H](O)C[C@@H]4C3)s2)CC1 [Compound 6] | 1.4
4 | C[C@H](c1ccc(F)cc1)n1cncc1CN1CCN(S(=O)(=O)c2cnc(N3CC[C@@H]4NCCO[C@H]4C3)s2)CC1 [Compound 15] | 1.2
5 | C[C@H](c1ccc(F)cc1)n1cncc1CN1CCN(S(=O)(=O)c2cnc(N3CCN4CCC(O)[C@H]4C3)s2)CC1 (stereo partly shown) [Compound 27] | 2.6
6 | C[C@H](c1ccc(F)cc1)n1cncc1CN1CCN(S(=O)(=O)c2cnc(N3CCNCC3)cn2)CC1 [Compound 30] | 3.6
7 | CN1CCN(c2ncc(S(=O)(=O)N3CCN(Cc4cncn4CCOc4ccc(Cl)cc4)CC3)s2)CC1 [Compound 32] | 1.2
8 | C[C@H](c1ccc(F)cc1)n1cncc1C1CN(C)CC2CN(S(=O)(=O)c3cnc(Nc4ccccn4)s3)CCN21 (stereo partly shown) [Compound 41] | 2.1
9 | C[C@H](c1ccc(F)cc1)n1cncc1C1CC12CCN(S(=O)(=O)c1cnc(N3CCN(C)CC3)s1)CC2 (single isomer, unassigned) [Compound 43a] | 6
10 | C[C@H](c1ccc(F)cc1)n1cncc1CN1CCN(S(=O)(=O)c2cnc(N3CCC(N)(CO)CC3)s2)CC1 [Compound 25] | 1.9
11 | Cc1ccc(C2(n3cncc3CN3CCN(S(=O)(=O)c4cnc(N5CCN(C)CC5)s4)CC3)CC2)nc1 [Compound 31] | 4.4
12 | C[C@H](c1ccc(F)cc1)n1cncc1CN1CCN(S(=O)(=O)c2cncc(N3CCNCC3)c2)CC1 [Compound 29] | 2.9
13 | C[C@H](c1ccc(F)cc1)n1cncc1CN1CCN(S(=O)(=O)c2cnc(N3CCN4C[C@H](O)C[C@H]4C3)s2)CC1 [Compound 5] | 3.8
14 | C[C@H](c1ccc(F)cc1)n1cnnc1CN1CCN(S(=O)(=O)c2cnc(N3CCN4C[C@H](O)C[C@H]4C3)s2)CC1 [Compound 42] | 32
15 | CC1CN(c2ncc(S(=O)(=O)N3CCN(Cc4cncn4[C@H](C)c4ccc(F)cc4)CC3)s2)C[C@@H]2C[C@@H](O)CN12 (stereo partly shown) [Compound 23] | 1.6
16 | C[C@H](c1ccc(F)cc1)n1cncc1CN1CCN(S(=O)(=O)c2cnc(N3CCC(S(C)(=O)=O)C3)s2)CC1 (stereo partly shown) [Compound 7] | 1.7
17 | C[C@H](c1ccc(F)cc1)n1cncc1CN1CCN(S(=O)(=O)c2cnc(N3CCN(C4CCN(C)CC4)CC3)s2)CC1 [Compound 9] | 2.8
18 | C[C@H](c1ccc(F)cc1)n1cncc1CN1CCN(S(=O)(=O)c2cnc(N3CCN4C[C@H](O)CC4(C)C3)s2)CC1 (stereo partly shown) [Compound 24] | 1.9
19 | C[C@H](c1ccc(F)cc1)n1cncc1CC1(C#N)CCN(S(=O)(=O)c2cnc(N3CCN(C)CC3)s2)CC1 [Compound 48] | 9.4

Further lines, results first:

Row | IC50 [nM] | Structure (SMILES)
20 | 1.5 | C[C@H](c1ccc(F)cc1)n1cncc1CN1CCN(S(=O)(=O)c2cnc(N3CCN4C(=O)OC[C@H]4C3)s2)CC1 [Compound 26]
21 | 1.8 | C[C@H](c1ccc(F)cc1)n1cncc1CN1CCN(S(=O)(=O)c2cnc(N3CCC(S(C)(=O)=O)C3)s2)CC1 (stereo partly shown) [Compound 8]
22 | 1.9 | C[C@H](c1ccc(F)cc1)n1cncc1CN1CCN(S(=O)(=O)c2cnc(N3C[C@@H]4C[C@@H](O)CN4C[C@@H]3C)s2)CC1 [Compound 21]
23 | 1 | C[C@H](c1ccc(F)cc1)n1cncc1CN1CCN(S(=O)(=O)c2cnc(N3CCN(C)CC3)s2)CC1 [Compound 2]
24 | < 0.1 | C[C@H](c1ccc(C#N)cc1)n1cncc1CN1CCN(S(=O)(=O)c2cnc(Nc3ccc(C(F)(F)F)cn3)s2)CC1 [Compound 4]
25 | 2 | C[C@H](c1ccc(F)cc1)n1cncc1C1CC12CCN(S(=O)(=O)c1cnc(N3CCN(C)CC3)s1)CC2 (single isomer, unassigned) [Compound 43b]
26 | 1.1 | C[C@H](c1ccc(F)cc1)n1cncc1CN1CCN(S(=O)(=O)c2cnc(N3CCN4C[C@H](O)C[C@H]4C3=O)s2)CC1 [Compound 18]
27 | 0.8 | C[C@H](c1ccc(F)cc1)n1cncc1C1COCC2CN(S(=O)(=O)c3cnc(Nc4ccccn4)s3)CCN21 (stereo partly shown) [Compound 40]
28 | 5.2 | C[C@H](c1ccc(F)cc1)n1cncc1CN1CCN(S(=O)(=O)c2cnc(N3CC(=O)N4C[C@H](O)C[C@H]4C3)s2)CC1 [Compound 16]
29 | 1.7 | C[C@H](c1ccc(F)cc1)n1cncc1CN1CCN(S(=O)(=O)c2cnc(NCC(F)CN)s2)CC1 (stereo partly shown) [Compound 17]
30 | 1.4 | C[C@H](c1ccc(F)cc1)n1cncc1CN1CCN(S(=O)(=O)c2cnc(N3CC[C@@H]4OCCN[C@H]4C3)s2)CC1 [Compound 13]
31 | 2.3 | CN1CCN(c2ncc(S(=O)(=O)N3CCN(Cc4cncn4CCOc4ccc(F)cn4)CC3)s2)CC1 [Compound 33]
32 | 13 | C[C@H](c1ccc(F)cc1)n1cncc1CC1(CO)CCN(S(=O)(=O)c2cnc(N3CCN(C)CC3)s2)CC1 [Compound 47]
33 | 4.4 | C[C@H](c1ccc(F)cc1)n1cncc1CN1CCN(S(=O)(=O)c2ccc(N3CCNCC3)cn2)CC1 [Compound 28]
34 | 1.4 | C[C@H](c1ccc(F)cc1)n1cncc1CN1CCN(S(=O)(=O)c2cnc(N3CCNCC3)s2)CC1 [Compound 1]
35 | 4.1 | C[C@H](c1ccc(F)cc1)n1cncc1CN1CCN(S(=O)(=O)c2cnc(N3CC[C@@H](N4CCOCC4)[C@H](F)C3)s2)CC1 [Compound 20]
36 | 1.7 | C[C@H](c1ccc(F)cc1)n1cncc1CN1CCN(S(=O)(=O)c2cnc(N3CCN4C[C@H](O)CC[C@H]4C3)s2)CC1 [Compound 19]
37 | 1 | C[C@H](c1ccc(F)cc1)n1cncc1CN1CCN(S(=O)(=O)c2cnc(N3CC[C@@H](N)[C@H](F)C3)s2)CC1 [Compound 12]
38 | 4.1 | CC(c1cncn1[C@H](C)c1ccc(F)cc1)N1CCN(S(=O)(=O)c2cnc(N3CCN4C[C@H](O)C[C@H]4C3)s2)CC1 (stereo partly shown) [Compound 37]
39 | 1.1 | C[C@H](c1ccc(F)cc1)n1cncc1CC1CCN(S(=O)(=O)c2cnc(N3CCN(C)CC3)s2)CC1 [Compound 44]

Target: T2, human CYP11B2 (Homo sapiens, UniProt P19099)
T2 construct: expressed in transfected cells
T2 sequence (P19099 25-503): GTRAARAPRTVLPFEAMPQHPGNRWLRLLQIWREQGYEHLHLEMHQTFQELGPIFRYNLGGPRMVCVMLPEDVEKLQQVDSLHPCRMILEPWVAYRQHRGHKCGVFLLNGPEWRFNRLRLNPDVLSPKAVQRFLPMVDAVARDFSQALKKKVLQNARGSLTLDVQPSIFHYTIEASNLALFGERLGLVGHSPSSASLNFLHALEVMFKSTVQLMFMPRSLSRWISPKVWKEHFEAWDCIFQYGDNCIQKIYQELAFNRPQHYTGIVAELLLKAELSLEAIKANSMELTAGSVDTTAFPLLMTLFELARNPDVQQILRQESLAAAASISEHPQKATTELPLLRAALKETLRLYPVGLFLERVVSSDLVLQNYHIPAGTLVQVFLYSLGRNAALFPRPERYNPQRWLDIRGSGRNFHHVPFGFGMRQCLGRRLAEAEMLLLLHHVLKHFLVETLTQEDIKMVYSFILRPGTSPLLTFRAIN
Assay: IC50 vs CYP11B2 by aldosterone synthesis in V79 cells (HTRF)
Type: cell-based
Conditions: V79 cells expressing human CYP11B2, 750 nM DOC, test conc. 0.5-10000 nM, unit inferred
Experimental: Determination of IC50 Vs CYP11B1/CYP11B2 by Measurement of Cortisol/Aldosterone Synthesis
This assay was performed in a standard 384-well plate design using cultured V79 cells stably expressing human CYP11B1 or human CYP11B2. Test compounds at 10 concentrations (for example, 10000, 3333.3, 1111.1, 370.4, 123.5, 41.2, 13.7, 4.6, 1.5 and 0.5 nM) were added in 384-well plate after the cell-seeding procedure. The incubation substrate contains 1500 nM RSS for CYP11B1 assay/750 nM DOC for CYP11B2 assay. The Cortisol/Aldosterone production of cell culture supernatant was determined by Cortisol/Aldosterone HTRF kit after for about 15 hours incubation at RT (protect from light). IC50 values were calculated from the percent inhibition observed for each test compound at 10 concentrations.
The assay plate was read using Envision (Perkin Elmer, Waltham, Mass.) at 665 nm and 590 nm (using Filter Barcode of 217#, 205#; Mirror Barcode of 446#).
Data are analyzed using Assay Data Analyzer. All ratio data (665 nm/590 nm) are back calculated according to the standard curve, resulting in Cortisol/Aldosterone concentrations. IC50 values are reported as the Inflection Point (IP) of a four parameter fit of the titration data.
The following equation was used to calculate the % inhibition: % Activity=100×{1−(Sample_back calculated Cortisol/Aldosterone concentration−LC_back calculated Cortisol/Aldosterone concentration)/(HC_back calculated Cortisol/Aldosterone concentration−LC_back calculated Cortisol/Aldosterone concentration)} Curve Fitting: Four Parameter Logistic: […]

Row | IC50 [nM] | Structure (SMILES)
40 | 16300 | C[C@H](c1ccc(F)cc1)n1cncc1CN1CCN(S(=O)(=O)c2cnc(N3CCC(S(C)(=O)=O)C3)s2)CC1 (stereo partly shown) [Compound 7]
